From patent US20250136586A1, “Substituted 7-(Pyrimidin-4-yl)Quinolin-4(1H)-One Compounds as Cyclin Dependent Kinase Inhibitors” (BeiGene, Ltd., priority 2022, published 2025)

Experiments:
CDK4/Cyclin D1 = CDK4/Cyclin D1 (Homo sapiens (Human), UniProt P11802); assay: TR-FRET kinase inhibition assay, CDK4/Cyclin D1; assay type: biochemical; settings: 1 mM ATP, 0.15 μM Rb (Ser780)-biotin substrate, read-out: CDK4D1 IC50
Outline: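 Kinase was preincubated with compound for 60 min at room temperature, then reacted with ATP and Rb (Ser780)-biotin substrate for 120 min. IC50 came from a four-parameter logistic fit.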

CDK6/Cyclin D3 = CDK6/Cyclin D3 (Homo sapiens (Human), UniProt Q00534); assay: TR-FRET kinase inhibition assay, CDK6/Cyclin D3; assay type: biochemical; settings: 1 mM ATP, 0.15 μM Rb (Ser780)-biotin substrate, read-out: CDK6D3 IC50
Outline: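 Kinase preincubated 60 min at room temperature with 0–10 μM compound; reaction started with 1 mM ATP and 0.15 μM Rb (Ser780)-biotin, run 120 min at room temperature in HEPES pH 7.0, 50 mM MgCl2. pRb detected by TR-FRET (665/620 nm ratio); IC50 from four-parameter logistic fit.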

CDK4/Cyclin D1, sequence (P11802 whole entry): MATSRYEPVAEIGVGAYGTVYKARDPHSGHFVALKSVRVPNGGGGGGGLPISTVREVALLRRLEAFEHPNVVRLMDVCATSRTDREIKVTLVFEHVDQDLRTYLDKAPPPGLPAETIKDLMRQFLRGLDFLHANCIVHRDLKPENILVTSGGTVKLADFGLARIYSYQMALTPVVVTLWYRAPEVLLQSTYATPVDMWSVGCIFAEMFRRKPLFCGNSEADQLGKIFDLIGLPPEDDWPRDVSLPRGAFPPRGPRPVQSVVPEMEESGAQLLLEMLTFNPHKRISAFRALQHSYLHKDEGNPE
CDK4/Cyclin D1, sequence (P24385 whole entry partner): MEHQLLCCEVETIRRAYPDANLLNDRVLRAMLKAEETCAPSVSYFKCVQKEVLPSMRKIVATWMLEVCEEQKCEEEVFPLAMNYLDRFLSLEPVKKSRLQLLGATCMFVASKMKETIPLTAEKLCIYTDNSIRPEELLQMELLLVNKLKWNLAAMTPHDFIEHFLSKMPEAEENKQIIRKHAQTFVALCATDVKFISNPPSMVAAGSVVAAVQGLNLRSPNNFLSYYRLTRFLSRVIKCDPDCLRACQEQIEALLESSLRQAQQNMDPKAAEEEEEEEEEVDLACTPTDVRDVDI
CDK6/Cyclin D3, sequence (Q00534 whole entry): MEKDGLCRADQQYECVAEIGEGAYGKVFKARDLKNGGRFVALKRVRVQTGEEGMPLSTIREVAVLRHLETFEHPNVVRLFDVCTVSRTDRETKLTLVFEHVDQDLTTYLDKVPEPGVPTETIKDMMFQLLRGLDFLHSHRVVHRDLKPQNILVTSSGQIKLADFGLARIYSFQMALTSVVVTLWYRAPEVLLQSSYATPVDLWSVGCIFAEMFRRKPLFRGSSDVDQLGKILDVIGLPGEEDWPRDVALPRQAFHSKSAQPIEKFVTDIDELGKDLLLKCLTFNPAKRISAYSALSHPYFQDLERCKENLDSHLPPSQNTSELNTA
CDK6/Cyclin D3, sequence (P30281 whole entry partner): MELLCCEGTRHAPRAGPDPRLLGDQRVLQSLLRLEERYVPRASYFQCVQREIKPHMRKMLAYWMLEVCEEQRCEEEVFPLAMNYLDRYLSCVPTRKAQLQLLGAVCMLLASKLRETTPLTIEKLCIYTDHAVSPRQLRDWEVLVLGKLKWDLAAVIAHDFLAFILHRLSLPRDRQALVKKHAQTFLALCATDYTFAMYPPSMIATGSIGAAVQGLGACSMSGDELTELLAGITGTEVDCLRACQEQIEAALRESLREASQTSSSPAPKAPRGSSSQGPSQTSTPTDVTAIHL

SMILES	IC50 (CDK4/Cyclin D1)	IC50 (CDK6/Cyclin D3)
CC(C)n1c(CN[C@@H]2CCOC2)cc(=O)c2ccc(-c3nc(N[C@@H]4CCOC[C@H]4O)ncc3F)cc21 [Example 65, 7-(5-fluoro-2-(((3S,4R)-3-hydroxytetrahydro-2H-pyran-4-yl)amino)pyrimidin-4-yl)-1-isopropyl-2-((((R)-tetrahydrofuran-3-yl)amino)methyl)quinolin-4(1H)-one]	31 nM	744 nM
CC(C)n1c(CNC2CCCC2)cc(=O)c2ccc(-c3nc(N[C@@H]4CCOC[C@H]4O)ncc3F)cc21 [Example 66, 2-((cyclopentylamino)methyl)-7-(5-fluoro-2-(((3S,4R)-3-hydroxytetrahydro-2H-pyran-4-yl)amino)pyrimidin-4-yl)-1-isopropylquinolin-4(1H)-one]	21 nM	651 nM
CC(C)n1c(CN[C@H]2CCOC2)cc(=O)c2ccc(-c3nc(N[C@@H]4CCOC[C@H]4O)ncc3F)cc21 [Example 67, 7-(5-fluoro-2-(((3S,4R)-3-hydroxytetrahydro-2H-pyran-4-yl)amino)pyrimidin-4-yl)-1-isopropyl-2-((((S)-tetrahydrofuran-3-yl)amino)methyl)quinolin-4(1H)-one]	21 nM	483 nM
CC(C)n1c(CN2C3COCC2C3)cc(=O)c2ccc(-c3nc(N[C@@H]4CCOC[C@H]4O)ncc3F)cc21 [Example 68, 2-((3-oxa-6-azabicyclo[3.1.1]heptan-6-yl)methyl)-7-(5-fluoro-2-(((3S,4R)-3-hydroxytetrahydro-2H-pyran-4-yl)amino)pyrimidin-4-yl)-1-isopropylquinolin-4(1H)-one]	34 nM	1220 nM
CC(C)n1c(CN2CCC[C@H](F)C2)cc(=O)c2ccc(-c3nc(N[C@@H]4CCOC[C@H]4O)ncc3F)cc21 [Example 69, 7-(5-fluoro-2-(((3S,4R)-3-hydroxytetrahydro-2H-pyran-4-yl)amino)pyrimidin-4-yl)-2-(((S)-3-fluoropiperidin-1-yl)methyl)-1-isopropylquinolin-4(1H)-one]	21 nM	693 nM
CC(C)n1c(CN2CCCC(F)(F)C2)cc(=O)c2ccc(-c3nc(N[C@@H]4CCOC[C@H]4O)ncc3F)cc21 [Example 70, 2-((3,3-difluoropiperidin-1-yl)methyl)-7-(5-fluoro-2-(((3S,4R)-3-hydroxytetrahydro-2H-pyran-4-yl)amino)pyrimidin-4-yl)-1-isopropylquinolin-4(1H)-one]	11 nM	396 nM
Cc1c(CN2[C@H](C)COC[C@H]2C)n(C(C)C)c2cc(-c3nc(N[C@@H]4CCOC[C@H]4O)ncc3F)ccc2c1=O [Example 71, 2-(((3R,5R)-3,5-dimethylmorpholino)methyl)-7-(5-fluoro-2-(((3S,4R)-3-hydroxytetrahydro-2H-pyran-4-yl)amino)pyrimidin-4-yl)-1-isopropyl-3-methylquinolin-4(1H)-one]	2.7 nM	140 nM
Cc1c(CN2[C@H](C)COC[C@@H]2C)n(C(C)C)c2cc(-c3nc(N[C@@H]4CCOC[C@H]4O)ncc3F)ccc2c1=O [Example 72, 2-(((3R,5S)-3,5-dimethylmorpholino)methyl)-7-(5-fluoro-2-(((3S,4R)-3-hydroxytetrahydro-2H-pyran-4-yl)amino)pyrimidin-4-yl)-1-isopropyl-3-methylquinolin-4(1H)-one]	0.8 nM	21.6 nM
CC(C)n1c(CN2CCOCC23CC3)cc(=O)c2ccc(-c3nc(N[C@@H]4CCOC[C@H]4O)ncc3F)cc21 [Example 73, 2-((7-oxa-4-azaspiro[2.5]octan-4-yl)methyl)-7-(5-fluoro-2-(((3S,4R)-3-hydroxytetrahydro-2H-pyran-4-yl)amino)pyrimidin-4-yl)-1-isopropylquinolin-4(1H)-one]	7.5 nM	225 nM
CC(C)n1c(CN2CC(F)C2)cc(=O)c2ccc(-c3nc(N[C@@H]4CCOC[C@H]4O)ncc3F)cc21 [Example 74, 7-(5-fluoro-2-(((3S,4R)-3-hydroxytetrahydro-2H-pyran-4-yl)amino)pyrimidin-4-yl)-2-((3-fluoroazetidin-1-yl)methyl)-1-isopropylquinolin-4(1H)-one]	30 nM	810 nM
CC(C)n1c(CNC(C)(C)C)cc(=O)c2ccc(-c3nc(N[C@@H]4CCOC[C@H]4O)ncc3F)cc21 [Example 75, 2-((tert-butylamino)methyl)-7-(5-fluoro-2-(((3S,4R)-3-hydroxytetrahydro-2H-pyran-4-yl)amino)pyrimidin-4-yl)-1-isopropylquinolin-4(1H)-one]	21 nM	525 nM
CC(C)n1c(CNC2CCC2)cc(=O)c2ccc(-c3nc(N[C@@H]4CCOC[C@H]4O)ncc3F)cc21 [Example 76, 2-((cyclobutylamino)methyl)-7-(5-fluoro-2-(((3S,4R)-3-hydroxytetrahydro-2H-pyran-4-yl)amino)pyrimidin-4-yl)-1-isopropylquinolin-4(1H)-one]	28 nM	588 nM
CC(C)n1c(CNC2CC(F)(F)C2)cc(=O)c2ccc(-c3nc(N[C@@H]4CCOC[C@H]4O)ncc3F)cc21 [Example 77, 2-(((3,3-difluorocyclobutyl)amino)methyl)-7-(5-fluoro-2-(((3S,4R)-3-hydroxytetrahydro-2H-pyran-4-yl)amino)pyrimidin-4-yl)-1-isopropylquinolin-4(1H)-one]	26 nM	598 nM
CC(C)n1c(CNc2cnn(C)c2)cc(=O)c2ccc(-c3nc(N[C@@H]4CCOC[C@H]4O)ncc3F)cc21 [Example 78, 7-(5-fluoro-2-(((3S,4R)-3-hydroxytetrahydro-2H-pyran-4-yl)amino)pyrimidin-4-yl)-1-isopropyl-2-(((1-methyl-1H-pyrazol-4-yl)amino)methyl)quinolin-4(1H)-one]	22 nM	352 nM
CC(C)n1c(CN2CCCOCC2)cc(=O)c2ccc(-c3nc(N[C@@H]4CCOC[C@H]4O)ncc3F)cc21 [Example 79, 2-((1,4-oxazepan-4-yl)methyl)-7-(5-fluoro-2-(((3S,4R)-3-hydroxytetrahydro-2H-pyran-4-yl)amino)pyrimidin-4-yl)-1-isopropylquinolin-4(1H)-one]	34 nM	850 nM
CC(C)n1c(CN2CCC(F)(F)C2)cc(=O)c2ccc(-c3nc(N[C@@H]4CCOC[C@H]4O)ncc3F)cc21 [Example 80, 2-((3,3-difluoropyrrolidin-1-yl)methyl)-7-(5-fluoro-2-(((3S,4R)-3-hydroxytetrahydro-2H-pyran-4-yl)amino)pyrimidin-4-yl)-1-isopropylquinolin-4(1H)-one]	22 nM	616 nM
CC(C)n1c(CN2C3CCC2COC3)cc(=O)c2ccc(-c3nc(N[C@@H]4CCOC[C@H]4O)ncc3F)cc21 [Example 81, 2-((3-oxa-8-azabicyclo[3.2.1]octan-8-yl)methyl)-7-(5-fluoro-2-(((3S,4R)-3-hydroxytetrahydro-2H-pyran-4-yl)amino)pyrimidin-4-yl)-1-isopropylquinolin-4(1H)-one]	23 nM	483 nM
CC(C)n1c(CN2CCOC[C@H]2C)cc(=O)c2ccc(-c3nc(N[C@@H]4CCOC[C@H]4O)ncc3F)cc21 [Example 82, 7-(5-fluoro-2-(((3S,4R)-3-hydroxytetrahydro-2H-pyran-4-yl)amino)pyrimidin-4-yl)-1-isopropyl-2-(((R)-3-methylmorpholino)methyl)quinolin-4(1H)-one]	12 nM	540 nM
